Where no end group is shown, it is not given here.
How the values were obtained:
[1] = test system: Wnt/β-catenin signaling pathway (TCF/LEF Responsive Luciferase Reporter HEK293A cell line); assay: Effect of enhancing Wnt/β-catenin signaling, TCF/LEF responsive luciferase reporter assay; format: cell-based; conditions: 10 μg/mL, 24 hours, WRHEK293A cells, non-treated control = 100%
Procedure: To determine activation of the Wnt/β-catenin signaling pathway, TCF/LEF Responsive Luciferase Reporter HEK293A stabilized cell line (Wnt Reporter HEK293A cell; WRHEK293A) was used in this test. The stabilized cell line was maintained through the subculture using MEM (Corning, USA) and fetal bovine serum (Gibco BRL, Gaithersburg, MD, USA). To carry out a transcriptional activity test, 30,000 cells were seeded per well in a 96-well plate and cultured in an incubator at 37° C. for 24 hours. Then, according to the present disclosure, treatment with each of escin, 27-deoxyactein, lysionotin, nitidine chloride, lanosterol, engeletin, specnuezhenide, praeruptorin B, rotundic acid, sesamoside, polygalacin D, momordin Ic, valechlorine, tussilagone, periplocin, polyphyllin VII and platycodin D2 was carried out as shown in the following Table 1. After culturing for 24 hours, a luciferase assay system (Promega) was used to perform reporter analysis. The analysis was carried out by the test method provided by the production company, and luminescence was determined by using Victor multiwall plate reader (PerkinElmer, USA). To determine cytotoxicity caused by the treatment, development of fluorescence of GFP as an internal control was determined. The luminescence value derived from the reaction with luciferase was divided by the GFP fluorescence value, and the values of the test group were calculated by taking the value of the non-treated control as 100% and expressed in the unit of percentage (%) (Table 1).

[2] = test system: B-16 mouse melanoma cells; assay: Determination of effect of producing melanin; format: cell-based; conditions: B-16 melanoma cells; for Melanin synthesis (%): non-treated control = 100%
Procedure: In this test, the compounds in Test Example 1 showing an effect of enhancing the Wnt signaling were added to the culture medium of mouse-derived melanoma cells (B-16 mouse melanoma cells) to determine the effect of producing melanin in a cellular level (Lotan R., Lotan D. Cancer Res. 40: 3345-3350, 1980). Before the test, B-16 melanoma cells were evaluated in terms of toxicity, and the non-toxic concentration was selected to carry out evaluation of melanin production. B-16 melanoma cells were subcultured in DMEM (Gibco BRL., Gaithersburg, MD, USA) containing 10% FBS. Then, seeding to a 100 mm cell culture dish was performed to synthesize and extract melanin, and the cells were treated with each compound when the confluency was 70%. The compound was used for treating the cell culture at a concentration of 10 μg/mL. In addition, α-melanocyte stimulating hormone (α-MSH) was used as control, added to the culture medium to 10 nM to treat B-16 melanoma cells, and cultured for 48 hours. Then, the cells were treated with trypsin to strip them off the culture container, and centrifugal separation was carried out to extract melanin. After that, 1 mL of sodium hydroxide (1 N concentration) solution was added to the stripped cells and the mixture was boiled for 10 minutes so that melanin may be dissolved. The amount of melanin production was determined by measuring the absorbance at 400 nm by using a spectrophotometer. The amount of melanin was quantified in the unit of μg/mL by using a standard absorbance curve as a function of melanin concentration. The value of the non-treated control was taken as 100%, and the values of the test group were calculated as a percentage (%) on the basis thereof (Table 2).

| Compound | Wnt signaling activation capability (%) (Luminescence/GFP) [1] | Melanin synthesis (%) ([2]; 10 μg/mL) | melanin synthesis (FIG. 1) [2] | Melanin synthesis (%) ([2]; 10 nM, 48 hours) |
| --- | --- | --- | --- | --- |
| valechlorine | 218% | 139% | – | – |
| COC(=O)C1=CO[C@@H](O[C@@H]2O[C@H](CO)[C@@H](O)[C@H](O)[C@H]2O)[C@@H]2[C@@]3(C)O[C@H]3[C@@H](O)[C@]12O [Sesamoside, sesamoside] | 275% | 112% | – | – |
| polyphyllin VII | 275% | 127% | – | – |
| CC1(C)CC[C@]2(C(=O)O)CC[C@]3(C)C(=CC[C@@H]4[C@@]5(C)CC[C@H](O[C@@H]6O[C@H](C(=O)O)[C@@H](O)[C@H](O[C@@H]7OC[C@@H](O)[C@H](O)[C@H]7O)[C@H]6O)C(C)(C)[C@@H]5CC[C@]43C)[C@@H]2C1 [Momordin Ic, momordin Ic] | 370% | 131% | – | – |
| escin | 1098% | 154% | increase in melanin synthesis | – |
| C[C@@H]1O[C@@H](O[C@H]2[C@H](OC(=O)[C@]34CCC(C)(C)C[C@H]3C3=CC[C@@H]5[C@@]6(C)C[C@H](O)[C@H](O[C@@H]7O[C@H](CO)[C@@H](O)[C@H](O[C@@H]8O[C@H](CO)[C@@H](O)[C@H](O)[C@H]8O)[C@H]7O)C(CO)(CO)[C@@H]6CC[C@@]5(C)[C@]3(C)C[C@H]4O)OC[C@H](O)[C@@H]2O)[C@H](O)[C@H](O)[C@H]1O[C@@H]1OC[C@@H](O)[C@H](O[C@@H]2OC[C@](O)(CO)[C@H]2O)[C@H]1O [Platycodin D2, platycodin D2] | 216% | 119% | – | – |
| CC(C)=CCC[C@@H](C)[C@H]1CC[C@@]2(C)C3=C(CC[C@]12C)[C@@]1(C)CC[C@H](O)C(C)(C)[C@@H]1CC3 [Lanosterol, lanosterol] | 194% | 110% | – | – |
| COc1cc2c[n+](C)c3c4cc5c(cc4ccc3c2cc1OC)OCO5 [Nitidine chloride, nitidine chloride] | 274% | 125% | – | – |
| C=C1[C@H](OC(=O)/C=C(\C)CC)C[C@@H](C(C)C)[C@@H]2[C@@H]([C@@H](C)OC(C)=O)C(=O)C[C@@H]12 [Tussilagone, tussilagone] | 195% | 136% | – | – |
| C[C@@H]1CC[C@]2(C(=O)O)CC[C@]3(C)C(=CC[C@@H]4[C@@]5(C)CC[C@H](O)[C@@](C)(CO)[C@@H]5CC[C@]43C)[C@@H]2[C@]1(C)O [Rotunic acid, rotundic acid] | 296% | 144% | – | – |
| CO[C@H]1C[C@H](O[C@H]2CC[C@]3(C)[C@H]4CC[C@]5(C)[C@@H](C6=CC(=O)OC6)CC[C@]5(O)[C@@H]4CC[C@]3(O)C2)O[C@H](C)[C@H]1O[C@@H]1O[C@H](CO)[C@@H](O)[C@H](O)[C@H]1O [Periplocin, periplocin] | 244% | 128% | – | – |
| CC1OC(OC2C(=O)c3c(O)cc(O)cc3OC2c2ccc(O)cc2)C(O)C(O)C1O (stereo not drawn) [Engeletin, engeletin] | 223% | 121% | – | – |
| C[C@@H]1O[C@@H](O[C@H]2[C@H](OC(=O)[C@]34CCC(C)(C)C[C@H]3C3=CC[C@@H]5[C@@]6(C)C[C@H](O)[C@H](O[C@@H]7O[C@H](CO)[C@@H](O)[C@H](O)[C@H]7O)[C@@](C)(CO)[C@@H]6CC[C@@]5(C)[C@]3(C)C[C@H]4O)OC[C@H](O)[C@@H]2O)[C@H](O)[C@H](O)[C@H]1O[C@@H]1OC[C@@H](O)[C@H](O[C@@H]2OC[C@](O)(CO)[C@H]2O)[C@H]1O [Polygalacin D, polygalacin D] | 292% | 114% | – | – |
| C/C=C(/C)C(=O)O[C@H]1c2c(ccc3ccc(=O)oc23)OC(C)(C)[C@H]1OC(=O)/C(C)=C\C [Praeruptorin B, praeruptorin B] | 241% | 136% | – | – |
| COc1ccc(-c2cc(=O)c3c(O)c(OC)c(O)c(OC)c3o2)cc1 [Lysionotin, lysionotin] | 196% | 135% | – | – |
| CC=C1[C@H](O[C@@H]2O[C@H](CO)[C@@H](O)[C@H](O)[C@H]2O)OC=C(C(=O)OC)[C@H]1CC(=O)OC[C@H]1O[C@@H](OCCc2ccc(O)cc2)[C@H](O)[C@@H](O)[C@@H]1O (stereo in doubt) [Specnuezhenide, specnuezhenide] | 243% | 106% | – | – |
| α-melanocyte stimulating hormone (SYSMEHFRWGKPV; ends and bridges not checked; UniProt P01189 138-150, looked up) [α-MSH, α-melanocyte stimulating hormone used as control at 10 nM, reference compound] | – | – | – | 135% |
| CC(=O)O[C@@H]1C[C@@]23C[C@@]24CC[C@H](O[C@@H]2OC[C@@H](O)[C@H](O)[C@H]2O)C(C)(C)[C@@H]4CC[C@H]3[C@]2(C)C[C@@H]3O[C@]4(C[C@@H](C)[C@@H]3[C@@]12C)OC[C@@]1(C)O[C@@H]41 [27-Deoxyactein, 27-deoxyactein] | 1717% | 168% | – | – |
